Source: patent US10709707B2, “Methods of treating ocular conditions” (Oyster Point Pharma, Inc., priority 2016, dated 2020)
Several values for one entry are separate records, joined by “and”; a condition that tells them apart may be missing. Equal values may be shown once. Read-outs that look alike come from different tables or passages of the source.

How the values were obtained:
[1] = Single dose pharmacokinetics, rat; type: in vivo, Sprague-Dawley rat; conditions: for AUC(0-t): read-out: AUC0-1
[2] = clinical studies with oral Compound 1; type: in vivo, human
Procedure: The oral form of Compound 1-A, Compound 1, has been studied in several clinical trials. A total of 108 human subjects have received Compound 1: 69 healthy volunteers in Phase 1 studies, 23 subjects in a Phase 1b gastroparesis study, and 16 subjects with constipation predominant irritable bowel syndrome (IBS-C) in a Phase 2a study. Subjects were exposed to doses of Compound 1 ranging from 5 mg through and including 200 mg.

human α7 = molecular target: T1, human α7 (Homo sapiens, UniProt P36544); test: Receptor binding α7, recombinant human receptors in HEK cells; conditions: human α7 expressed in HEK cells
T1 construct: expressed in transfected cells; host or cells: HEK cells (per the earlier reading)
T1 sequence (P36544 23-502): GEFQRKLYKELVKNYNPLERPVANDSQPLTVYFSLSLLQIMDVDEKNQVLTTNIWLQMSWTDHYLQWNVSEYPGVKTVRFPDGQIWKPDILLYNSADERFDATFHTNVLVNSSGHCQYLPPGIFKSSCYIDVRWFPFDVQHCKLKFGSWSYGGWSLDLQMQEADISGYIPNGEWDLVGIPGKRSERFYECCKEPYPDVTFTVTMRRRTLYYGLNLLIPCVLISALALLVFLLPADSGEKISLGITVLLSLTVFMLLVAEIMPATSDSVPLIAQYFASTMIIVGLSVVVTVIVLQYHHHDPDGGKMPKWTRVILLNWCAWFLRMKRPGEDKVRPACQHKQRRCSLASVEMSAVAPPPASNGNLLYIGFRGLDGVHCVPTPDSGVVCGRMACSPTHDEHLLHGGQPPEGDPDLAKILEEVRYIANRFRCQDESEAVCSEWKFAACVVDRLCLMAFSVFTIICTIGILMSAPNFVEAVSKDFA

[3] = tested on: neuronal nicotinic receptors; test: In vitro binding (off-target receptors) at 10 μM; conditions: hemigalactarate salt
[4] = molecular target: T2, rat ganglion receptors α3β4 (Rattus norvegicus, UniProt P04757+P12392); test: Receptor function ganglionic receptors (rat), PC-12 cells; type: cell-based; conditions: for Emax: PC-12, Rat ganglion-type (a3b4*)
T2 construct: endogenous in cells; host or cells: PC-12 cells (per the earlier reading)
T2 sequence (P04757 26-499): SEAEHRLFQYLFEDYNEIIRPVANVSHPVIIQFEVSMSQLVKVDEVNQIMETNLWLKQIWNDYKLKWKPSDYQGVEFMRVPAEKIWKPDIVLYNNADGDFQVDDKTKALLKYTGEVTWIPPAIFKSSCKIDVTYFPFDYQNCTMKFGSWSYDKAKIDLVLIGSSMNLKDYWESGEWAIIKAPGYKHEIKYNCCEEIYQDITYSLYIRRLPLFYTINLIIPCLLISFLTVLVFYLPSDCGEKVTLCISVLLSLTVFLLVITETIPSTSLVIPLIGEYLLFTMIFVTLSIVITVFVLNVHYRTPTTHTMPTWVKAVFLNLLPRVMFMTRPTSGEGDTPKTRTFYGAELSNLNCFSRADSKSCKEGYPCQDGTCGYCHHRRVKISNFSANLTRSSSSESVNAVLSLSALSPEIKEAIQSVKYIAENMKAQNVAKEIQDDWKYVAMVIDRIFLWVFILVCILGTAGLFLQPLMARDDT
T2 sequence (P12392 21-495): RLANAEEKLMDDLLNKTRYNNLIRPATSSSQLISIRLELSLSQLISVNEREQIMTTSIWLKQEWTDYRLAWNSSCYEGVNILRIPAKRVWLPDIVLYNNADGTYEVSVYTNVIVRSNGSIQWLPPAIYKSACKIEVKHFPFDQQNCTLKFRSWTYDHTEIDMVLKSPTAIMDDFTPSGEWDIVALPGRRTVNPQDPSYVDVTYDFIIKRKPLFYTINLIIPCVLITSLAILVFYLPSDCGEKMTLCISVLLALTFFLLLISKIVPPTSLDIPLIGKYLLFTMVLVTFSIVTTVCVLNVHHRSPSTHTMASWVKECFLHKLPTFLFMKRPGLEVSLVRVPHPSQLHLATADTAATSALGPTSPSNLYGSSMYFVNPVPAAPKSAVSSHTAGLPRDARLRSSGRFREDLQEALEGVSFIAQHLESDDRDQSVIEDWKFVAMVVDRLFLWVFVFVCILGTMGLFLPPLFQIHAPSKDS

[5] = binding to red blood cells and blood/plasma ratio; type: in vitro ADME; conditions: broadly species and concentration independent
Procedure: Binding of Compound 1 to red blood cells was 28 to 54% directly after spiking and 41 to 63% at 0.5 and 1 hour after spiking. The blood/plasma ratios ranged from 0.78 to 1.26 and were broadly species and concentration independent.

plasma protein binding = type: in vitro ADME; conditions: mouse, rat, guinea pig, dog, monkey and human plasma; concentrations up to about 113 μM
[6] = Stability study of drug substance; type: physicochemical
Procedure: A previous cGMP lot of Compound 1 was manufactured.
There was a slight decrease in assay value below the 98% specification at 6 month 40° C./75% RH and 9 month 30° C./65% RH. However, based on the minimal change at accelerated conditions and the stability of the real time data, the drug substance is currently considered to be stable for at least 36 months.

formalin test = test: Analgesic effects, formalin test; type: in vivo, Mouse: CD-1; conditions: po; Compound 1 0.1, 1 and 10 mg/kg, Aspirin 100 mg/kg, Morphine 30 mg/kg
human α4β2 = human α4β2 (Homo sapiens, UniProt P17787+P43681); test: Receptor function α4β2, Ca++ flux; type: cell-based
Sequence of human α4β2 (P43681 29-627 limits assumed): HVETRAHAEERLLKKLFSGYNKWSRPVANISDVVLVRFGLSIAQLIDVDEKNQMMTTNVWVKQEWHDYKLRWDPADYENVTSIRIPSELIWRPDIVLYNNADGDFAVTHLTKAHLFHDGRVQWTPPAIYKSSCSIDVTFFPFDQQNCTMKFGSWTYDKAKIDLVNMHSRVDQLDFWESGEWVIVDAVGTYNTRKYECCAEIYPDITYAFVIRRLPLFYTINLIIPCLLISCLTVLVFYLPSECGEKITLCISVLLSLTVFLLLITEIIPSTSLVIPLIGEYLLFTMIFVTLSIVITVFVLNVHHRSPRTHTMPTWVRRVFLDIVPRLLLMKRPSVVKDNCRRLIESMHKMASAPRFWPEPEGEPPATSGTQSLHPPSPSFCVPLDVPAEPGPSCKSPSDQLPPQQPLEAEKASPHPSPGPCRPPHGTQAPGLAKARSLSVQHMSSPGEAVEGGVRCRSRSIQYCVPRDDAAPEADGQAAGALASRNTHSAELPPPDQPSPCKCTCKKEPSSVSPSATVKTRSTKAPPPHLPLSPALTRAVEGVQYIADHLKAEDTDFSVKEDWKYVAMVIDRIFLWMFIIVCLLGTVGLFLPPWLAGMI
Sequence of human α4β2 (P17787 26-502): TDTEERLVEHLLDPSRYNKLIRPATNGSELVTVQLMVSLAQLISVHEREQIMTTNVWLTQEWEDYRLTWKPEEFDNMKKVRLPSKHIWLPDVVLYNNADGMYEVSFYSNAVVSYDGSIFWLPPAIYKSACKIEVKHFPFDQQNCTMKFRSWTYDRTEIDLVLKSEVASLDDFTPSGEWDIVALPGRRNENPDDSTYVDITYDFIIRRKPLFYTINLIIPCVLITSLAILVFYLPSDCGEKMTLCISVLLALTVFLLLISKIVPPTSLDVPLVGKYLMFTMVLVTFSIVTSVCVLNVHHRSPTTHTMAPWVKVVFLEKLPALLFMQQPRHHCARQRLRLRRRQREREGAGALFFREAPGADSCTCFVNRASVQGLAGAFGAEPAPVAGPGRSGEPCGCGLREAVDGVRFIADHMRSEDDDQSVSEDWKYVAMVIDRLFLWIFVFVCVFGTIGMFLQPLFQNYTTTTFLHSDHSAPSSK
Procedure: There are two types of α4β2-containing nAChR, depending on which subunit occupies the fifth subunit of the pentaineric complex. There is a high sensitivity subtype, (α4β2)2β2, and a low sensitivity subtype, (α4β2)2α4. Targacept used a rudimentary assay to encourage the expression of one subtype over the other based on incubation temperature.

α4β2 (rat), a4b2*/a6b2* = test: Receptor function, [3H]-dopamine release from rat striatal synaptosomes; type: biochemical
[7] = Sprague-Dawley, plasma, S-D rat, 30 mg/kg [14C]-Compound 1, oral
[8] = male, Sprague-Dawley, plasma, S-D rat, 0.3 mg/kg Compound 1, oral
[9] = male, Sprague-Dawley, plasma, S-D rat, 3 mg/kg Compound 1, oral
[10] = a4b2 HS (high sensitivity), 29° C., Ca++ Flux
[11] = [3H] DA release, Rat Striatal Synaptosomes
[12] = [3H]-DA release, rat striatal synaptosomes

## C(=C\[C@H]1CCNC1)/c1cncnc1 [Compound 1, (R)-5-((E)-2-pyrrolidin-3-ylvinyl)pyrimidine]
[1]; [7]
  Cmax: 1710 ng/mL
  Tmax: 0.25 h
[1]; Sprague-Dawley, plasma, S-D rat, 30 mg/kg [14C]-Compound 1, oral, t = 168 h
  AUC(0-t): 3310 ng·h/mL
[1]; Sprague-Dawley, plasma, S-D rat, 30 mg/kg [14C]-Compound 1, oral, read-out: t1/2 (converted)
  half-life: 1.2 h
[1]; male rats, 3 mg/kg group vs 0.3 mg/kg, oral
  Cmax and AUC0-24 vs dose: higher than dose-proportional
[1]; [8]
  Cmax: 6.51 ng/mL
  Tmax: 0.5 h
[1]; male, Sprague-Dawley, plasma, S-D rat, 0.3 mg/kg Compound 1, oral, t = 25 h
  AUC(0-t): 13.5 ng·h/mL
[1]; male, Sprague-Dawley, plasma, S-D rat, 0.3 mg/kg Compound 1, oral, read-out: t1/2 (converted)
  half-life: 1.4 h
[1]; [9]
  Cmax: 169 ng/mL
  Tmax: 0.167 h
[1]; male, Sprague-Dawley, plasma, S-D rat, 3 mg/kg Compound 1, oral, t = 25 h
  AUC(0-t): 211 ng·h/mL
[1]; male, Sprague-Dawley, plasma, S-D rat, 3 mg/kg Compound 1, oral, read-out: t1/2 (converted)
  half-life: 1.4 h
[1]; male, Sprague-Dawley, rat, brain, oral, 0.3 or 3 mg/kg orally, read-out: brain exposure as share of plasma exposure
  Kp: ~0.15
[1]; male, Sprague-Dawley, rat, plasma and brain, po, 0.3 or 3 mg/kg orally, read-out: half-life (plasma and brain concentrations) (converted)
  half-life: 1.4 h
[2]; 108 human subjects, oral doses 5 mg to 200 mg
  changes in physical exam, blood or urine laboratory measurements or ECG measurements: No clinical noteworthy changes
[2]; all studies, oral doses 5 mg to 200 mg
  adverse events reported: typically GI-related
[2]; clinical studies to date
  changes in ECG measurements: no noteworthy changes
Human α7
  Ki: 15 µM
[3]
  binding affinity: nicotinic receptors (100%), the only
[4]; Ca++ Flux
  Emax: 35%
[4]; Rb+ Flux, single point
  Emax: 19%
[4]; PC-12 cells
  Activity at rat ganglion receptors: receptors in PC-12 cells was low (19%).
[4]; Rat ganglion-type (a3b4*), Ca++ Flux
  EC50: 53 µM
[5]
  blood plasma ratio: 0.78 to 1.26
Plasma protein binding
  fraction unbound: > 0.87
[6]; 6 month, 40° C./75% RH
  assay value: < 98%
[6]; 9 month, 30° C./65% RH
  assay value: < 98%
[6]; 25° C./60% RH, 1 M
  Assay (HPLC-UV): 102.4%
  Related Substances, RRT = 0.26: 0.09 % w/w
  Total Related Substances: 0.09%
  Water Content (Karl Fischer): 12.10 % w/w
[6]; 25° C./60% RH, 3 M
  Assay (HPLC-UV): 100.2%
  Related Substances, RRT = 0.26: 0.09 % w/w
  Total Related Substances: 0.09%
  Water Content (Karl Fischer): 12.25 % w/w
[6]; 25° C./60% RH, 6 M
  Assay (HPLC-UV): 98.9%
  Total Related Substances: 0.05%
  Water Content (Karl Fischer): 12.04 % w/w
[6]; 25° C./60% RH, 9 M
  Assay (HPLC-UV): 99.7%
  Related Substances, RRT = 0.26: 0.09 % w/w
  Total Related Substances: 0.12%
  Water Content (Karl Fischer): 11.52 % w/w
[6]; 25° C./60% RH, 12 M
  Assay (HPLC-UV): 101.2%
  Chiral Purity: 100 % ee
  Related Substances, RRT = 0.18: 0.10 % w/w
  Related Substances, RRT = 0.88: 0.05 % w/w
  Total Related Substances: 0.16%
  Water Content (Karl Fischer): 11.52 % w/w
[6]; 25° C./60% RH, 18 M
  Assay (HPLC-UV): 100.4%
  Related Substances, RRT = 0.26: 0.07 % w/w
  Total Related Substances: 0.07%
  Water Content (Karl Fischer): 11.50 % w/w
[6]; 25° C./60% RH, 24 M
  Assay (HPLC-UV): 100.0%
  Chiral Purity: 100 % ee
  Related Substances, RRT = 0.26: 0.05 % w/w
  Total Related Substances: 0.05%
  Water Content (Karl Fischer): 11.42 % w/w
[6]; 25° C./60% RH, 36 M
  Assay (HPLC-UV): 99.7%
  Chiral Purity: 100 % ee
  Related Substances, RRT = 0.26: 0.04 % w/w
  Total Related Substances: 0.04%
  Water Content (Karl Fischer): 11.53 % w/w
[6]; 25° C./60% RH, Initial
  Assay (HPLC-UV): 100.9%
  Chiral Purity: 100 % ee
  Related Substances, RRT = 0.26: 0.05 % w/w
  Total Related Substances: 0.05%
  Water Content (Karl Fischer): 11.36 % w/w
[6]; real time 25° C./60% RH data
  time for which drug substance is considered stable: at least 36 months
Formalin test
  analgesic effects after formalin injection, Day 1: mg/kg) and Aspirin at 100 mg/kg failed
Human α4β2; Ca++ flux, SH-EP1 cells expressing human α4β2
  EC50: 5.3 µM
Human α4β2; Ca++ flux, SH-EP1 cells expressing human α4β2, read-out: Emax
  Emax: 120%
Human α4β2; Human a4b2, Ca++ Flux
  EC50: 5.3 µM
Human α4β2; a4b2 HS 29° C., Ca++ Flux
  (Imax): 98
Human α4β2; [10]
  EC50: 3.3 µM
  IC50: 0.43 µM
Human α4β2; a4b2 LS 37° C., Ca++ Flux
  DC50: 0.45 µM
  Dmax: 98%
Human α4β2; a4b2 LS (low sensitivity), 37° C., Ca++ Flux
  EC50: 5.3 µM
Human α4β2; high sensitivity subtype (α4β2)2β2, read-out: Emax
  Emax: 120%
Human α4β2; human α4β2-containing nAChR
  EC50: 0.6 µM
Human α4β2; low sensitivity subtype (LS)
  IC50: 0.45 µM
Human α4β2; read-out: Emax compared to nicotine, human α4β2-containing nAChR
  Emax: 120%
Human α4β2; α4β2 nicotine receptor subtype
  agonist type: full agonist
α4β2 (rat), a4b2*/a6b2*; [11]
  DA Release ratio: 0.55 DA
  EC50: 3.9 µM and 3.93 µM
  Emax: 110 and 114
α4β2 (rat), a4b2*/a6b2*; [12]
  EC50: 3.93 µM
  Emax: 114 % of nicotine
  agonist type at the α4β2 subtype: nM. Compound 1 is a full agonist at the α4β2
